{
  "source": "patent US20250302913A1",
  "about": "“LACRIPEP PROMOTES NEUROREGENERATION AND MAINTAINS EPITHELIAL PROGENITOR CELL IDENTITY” (The Regents of The University of California, priority 2022, published 2025)",
  "key": {"[1]": {"system": "corneal nerves of Aire KO corneas", "assay": "Corneal nerve density (GAP43, TUBB3, SP, CGRP immunolabeling)", "format": "in vivo, mouse", "text": "To test for changes in innervation, corneas isolated from the four treatment groups at day 15 were immunostained for growth-associated protein 43 (GAP43), a marker of remodeling axons (25), along with two common sensory neuropeptides, substance P (SP) and calcitonin-gene related protein (CGRP). SP and CGRP are differentially expressed to carry out discrete functions: SP is released in response to trigeminal activation to modulate tear secretion and goblet cell function (26) while CGRP is involved in multiple homeostatic processes, including corneal epithelium regeneration and regulation of vasculature (27, 28). […] Thus, lacripep treatment successfully regenerates the sensory nerve supply to the inflamed cornea during disease progression.\nGiven nerve-epithelial interactions are essential for mediating physiological tear secretion, we next assessed innervation to corneal epithelial cell layers at 2 wks of treatment (day 15, 7 wks of age) through immunofluorescent analysis.\nNext, we questioned the timing of epithelial reinnervation in response to lacripep treatment by analyzing the nerve supply at the 7 day time point (6 wks of age) through 3D imaging of intact whole mount corneas (FIG. 3A). […] Of note, the pro-regenerative cellular changes after axon injury result in neurons switching from an active, electrically transmitting state back to an electrically silent, growth-competent state (29-31), thereby likely impairing increased basal tear production at the 7 day time point for lacripep treated mice compared to untreated Aire KO controls (FIG. 1B).\nFor corneal whole mount staining, PFA fixed corneas were blocked and incubated in primary antibodies for 48 hr at 4° C.: Mouse anti-TUBB3 (1:300, R&D, MAB 1195), rabbit anti-GAP43 (1:400, Novus bio, NB 300-143), goat anti-CGRP (1:300, Thermo fisher, PA1-85250), and rat anti-Substance P (1:500, Millipore, MAB 356). This was followed by extensive washes in PBST before tissue was incubated in secondary antibodies overnight at 4° C.\nQuantification of corneal epithelial nerve density and synapses. Tissue sections: TUBB3+ nerve density within 300 μm sections of central cornea epithelial ROI was quantified by applying Tsai's thresholding method (Moments), with integrated densities within the ROI of the thresholded image being recorded. Corneal whole mounts: The density of nerves expressing GAP43, TUBB3, or GAP43 and TUBB3 (% Area of 354 μm×396 μm) was quantified from central cornea images of whole mount cornea and plotted in a stacked bar graph to visualize the proportion of each of the three nerve types. Similarly, numbers of synapses marked by expression of GAP43, TUBB3, or GAP43 and TUBB3 were counted per respective region of central cornea (100 μm2) and plotted in a stacked bar graph. The density of GAP43+ nerves were quantified from the whole mount cornea images (354 μm×396 μm) applying Tsai's threshold as described above.\n3D reconstruction of nerve fibers. Acquired confocal Z-stacks comprising epithelial and stroma were reconstructed into 3D images using Imaris image analysis software (Bitplane AG, Zurich, Switzerland). The surface of the nuclei (Hoechst) and nerves (TUBB3/GAP43/SP/CGRP) were segmented using the background subtraction threshold. Each channel was obtained separately. Touching nuclei were split by the calculated seed points inside each area."}, "syndecan-1 (SDC1)": {"molecular_target": "T1, syndecan-1 (SDC1) (Homo sapiens, UniProt P18827)", "T1 sequence (P18827 23-310)": "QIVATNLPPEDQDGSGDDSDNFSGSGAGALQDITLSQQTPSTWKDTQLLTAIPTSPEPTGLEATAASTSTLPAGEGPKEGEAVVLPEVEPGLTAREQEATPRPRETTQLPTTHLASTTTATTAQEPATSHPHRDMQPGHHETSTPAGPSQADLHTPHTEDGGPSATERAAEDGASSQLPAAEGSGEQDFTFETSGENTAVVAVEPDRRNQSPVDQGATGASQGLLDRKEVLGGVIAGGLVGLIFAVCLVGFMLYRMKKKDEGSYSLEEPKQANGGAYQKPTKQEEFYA", "settings": "cited from earlier work"}, "KRT14+ basal cells": {"system": "KRT14+ basal cells", "assay": "Basal progenitor identity (KRT14/KRT6A) and proliferation (Ki67) in cornea", "format": "in vivo, mouse", "settings": "2 wks treatment; Aire KO cornea", "text": "Although it has been well established that basal progenitor cells (also referred to as transit amplifying cells (13)) undergo mitosis and migration (14) to give rise to the barrier forming suprabasal epithelial and stratified squamous epithelial cells, the impact of dry eye disease on basal cell identity and differentiation remains largely unknown. Thus, we questioned whether basal cell identity was altered in the desiccated cornea through defining the cellular location of KRT6A, a marker of early epithelial cell differentiation in skin (15) and cultured cornea epithelial cells (16). Accordingly, we confirmed that KRT6A marks differentiated corneal epithelial cell types in vivo, as shown by its exclusive expression in KRT14-deficient suprabasal and superficial epithelial cells of healthy cornea at 7 wks of age (FIG. 1G). […] To determine if changes in cell identity alters progenitor cell division, we analyzed the percentage of proliferating K14+ basal cells in treated and untreated corneas. […]\nQuantification of corneal epithelial basal progenitor identity and proliferation. The number of basal KRT14+ and KRT14+ KRT6A+ basal epithelial cells were counted in 350 μm sections of central cornea. […] The number of proliferating epithelial progenitors (Ki67+ KRT14+) was presented as a percentage of total KRT14+ cells counted in 350 μm sections of central cornea."}},
  "data": [
    {"substance": "Ac-KQFIENGSEFAQKLLKKFSLLKPWA-NH2 [lacripep, amino terminus acetylated, carboxyl terminus aminated]", "values": [
      {"measurement": "proportion of GAP43+ TUBB3+ nerves in central cornea", "setting": "[1]; day 7, WT 37%", "result": 26, "unit": "%"},
      {"measurement": "proportion of GAP43+ nerves in central cornea", "setting": "[1]; day 7, WT 43%", "result": 50, "unit": "%"},
      {"measurement": "nerve density of central cornea relative to WT tissue", "setting": "[1]; day 7, whole mount", "result": "45 % of the nerve density of WT tissue"},
      {"measurement": "nerve density level", "setting": "[1]; day 15", "result": "returning to that of WT cornea"},
      {"measurement": "innervation of epithelial cell layers (TUBB3+ axons)", "setting": "[1]; day 15, central corneal cross-sections", "result": "resembled that of WT tissue"},
      {"measurement": "density of GAP43+ nerve fibers expressing SP and CGRP", "setting": "[1]; day 15, whole mount cornea", "result": "nearly equivalent to that of the WT controls"},
      {"measurement": "binding and activation of syndecan-1", "setting": "syndecan-1 (SDC1)", "result": "bind and activate"},
      {"measurement": "basal cell identity (KRT6A in KRT14+ basal cells)", "setting": "KRT14+ basal cells", "result": "returned to that of WT tissue"}
    ]}
  ]
}
